Experiments:
ABCG2 [1] = target: T1, ABCG2 (Homo sapiens, UniProt Q9UNQ0); format: cell-based
T1 sequence (Q9UNQ0 1-655): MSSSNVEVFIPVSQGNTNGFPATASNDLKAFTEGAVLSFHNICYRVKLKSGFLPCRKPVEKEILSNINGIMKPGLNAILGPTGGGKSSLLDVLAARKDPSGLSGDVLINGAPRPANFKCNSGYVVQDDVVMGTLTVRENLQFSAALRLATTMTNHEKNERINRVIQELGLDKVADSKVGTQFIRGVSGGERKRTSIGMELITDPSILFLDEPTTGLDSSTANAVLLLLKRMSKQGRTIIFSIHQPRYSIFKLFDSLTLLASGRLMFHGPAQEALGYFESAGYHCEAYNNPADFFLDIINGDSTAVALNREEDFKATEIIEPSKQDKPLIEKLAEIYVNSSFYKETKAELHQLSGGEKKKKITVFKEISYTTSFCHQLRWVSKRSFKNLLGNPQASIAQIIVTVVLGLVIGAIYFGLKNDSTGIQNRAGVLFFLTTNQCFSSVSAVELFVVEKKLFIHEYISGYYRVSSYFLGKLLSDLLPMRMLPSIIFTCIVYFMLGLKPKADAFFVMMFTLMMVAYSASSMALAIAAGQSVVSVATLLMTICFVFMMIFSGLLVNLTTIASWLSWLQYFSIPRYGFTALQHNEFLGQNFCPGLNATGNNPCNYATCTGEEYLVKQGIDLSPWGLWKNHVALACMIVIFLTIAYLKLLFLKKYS

ABCG2 [2] = target: T1, ABCG2; test: intracellular accumulation in ABCG2-transfected HEK293 cells; format: cell-based

Compound | ATP-dependent uptake into membrane vesicles (ABCG2 [1]) | intracellular accumulation in ABCG2-transfected HEK293 cells (ABCG2 [2])
CN(Cc1cnc2nc(N)nc(N)c2n1)c1ccc(C(=O)N[C@@H](CCC(=O)O)C(=O)O)cc1 [[3H]-methotrexate] | using membrane vesicles to determine the rate of ATP-dependent uptake of [^3H]-methotrexate, another substrate of ABCG2 | –
O=C1c2c(O)ccc(O)c2C(=O)c2c(NCCNCCO)ccc(NCCNCCO)c21 [[3H]-mitoxantrone] | – | the intracellular levels of [^3H]-mitoxantrone, a known substrate of ABCG2 was measured in the presence or absence of VKJP1 or VKJP3

Source: article PMC3443622 (2012)
